From US8889671B2, “Compounds and methods for treating bacterial infections” (AstraZeneca AB, priority 2013, dated 2014)
Converted amounts (≈) assume the structure as drawn. Like-named read-outs stand apart in the source and are kept apart here.

Columns and labels:
[1] = biological target: Escherichia coli DNA gyrase A/B tetramer (Escherichia coli (strain K12), UniProt P0AES4+P0AES6); test: DNA gyrase supercoiling activity fluorescence polarisation assay; type: biochemical; settings: Eco Gyr FP Mean IC50, E. coli DNA gyrase supercoiling, 0.3 mM ATP
In short: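 Relaxed triplex-forming plasmid (130 micrograms/mL) supercoiled by 5 nM gyrase A/B tetramer in Tris-HCl pH 7.5 buffer with 4 mM MgCl2 and 0.3 mM ATP, ~30 min, ambient temperature. Quenched with 5′-BODIPY-FL triplex probe at pH 3.5; fluorescence anisotropy read after 60 min. IC50 by nonlinear regression against two control reactions.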

[2] = system: Streptococcus pyogenes ATCC12384; test: Modal MIC against S. pyogenes ATCC12384; type: cell-based
Method: The MIC against S. pyogenes ATCC12384 was determined using the broth microdilution method following CLSI guidelines. Three individual determinations were performed for each strain and the Modal MIC was used for all PK/PD calculations. All animal experiments were performed under UK Home Office Licensure with local ethical committee clearance. All experiments were performed by technicians who have completed parts 1, 2 and 3 of the Home Office Personal License course and hold current personal licenses.

[3] = Plasma pharmacokinetics in S. pyogenes infected mice; type: in vivo; settings: mouse, ip, with ABT
Method: Groups of satellite mice infected with S. pyogenes, as described above, were used for determining plasma concentrations. Dosing started 2 hours after infection and whole blood samples were taken at 0.5, 1, 2, 4, 6, 8, 12 and 24 h. Mice from the satellite PK study were euthanized by inhaled 5% isofluorane at specified time points post-treatment, mice were bled immediately by cardiac puncture. Heparinised blood samples were separated by centrifugation for five minutes at 13200 rpm. Plasma samples were stored at minus 80° C. before transfer to the client for analysis.
For the PK arm of the study, 3 mice per time point per unit dose were used. Due to unintended changes in the final work order, the 80 and 160 mg/kg dosing groups initially were administered Example 5 without prior treatment with aminobenzotriazole. Once this was realised, the remaining mice were re-distributed across the dosing groups and group size was reduced to two mice per time point.
Biological samples containing Example 5 were extracted using protein precipitation. To one volume of sample, 5 volumes of acetonitrile containing the internal standard (Glyburide) were added. The mixture was then mixed and the plate was centrifuged at 3200 rpm for 5 min. A 200 μL volume of the supernatant was dried down and, reconstituted in mobile phase and the mixture was injected onto liquid chromatography-mass spectrometry (LC-MS). A Sciex API 4000, controlled by Analyst v1.4.2, was used for the acquisition of the data and the quantification of Example 5.
The plasma profile for each dose group was obtained by calculating the average plasma concentration of compound in each of the two to three animals per time point. The area under the plasma concentration time curve from zero to infinity (AUC); maximum plasma drug concentration (Cmax); time to reach maximum concentration (tmax); and plasma half-life (t1/2) for each dose group was determined by non-compartmental analysis (WinNonLin 5.2, Pharsight). The non-compartmental Model 200 was used in the analysis.

[4] = system: Acinetobacter baumannii; test: In vitro antibacterial activity of Example 5 (MIC); type: cell-based
[5] = system: Burkholderia cepacia; test: In vitro antibacterial activity of Example 5 (MIC); type: cell-based
[6] = system: Candida albicans; test: In vitro antibacterial activity of Example 5 (MIC); type: cell-based; settings: ATCC90028; Candida albicans (ATCC 90028 CLSI QC Strain)
[7] = system: Enterobacter aerogenes; test: In vitro antibacterial activity of Example 5 (MIC); type: cell-based; settings: Klebsiella aerogenes
[8] = system: Enterococcus faecalis; test: In vitro antibacterial activity of Example 5 (MIC); type: cell-based
[9] = system: Pseudomonas aeruginosa; test: In vitro antibacterial activity of Example 5 (MIC); type: cell-based
[10] = system: Staphylococcus lugdunensis; test: In vitro antibacterial activity of Example 5 (MIC); type: cell-based
[11] = system: Streptococcus constellatus; test: In vitro antibacterial activity of Example 5 (MIC); type: cell-based
[12] = system: Streptococcus pyogenes; test: In vitro antibacterial activity of Example 5 (MIC); type: cell-based; settings: for MIC: Streptococcus pyogenes (isolates not further specified)
[13] = system: B. cereus; test: microbe, parasite or virus in culture; type: cell-based; settings: Bacillus cereus
[14] = system: Legionella pneumophila; test: microbe, parasite or virus in culture; type: cell-based
[15] = system: Neisseria gonorrhoeae; test: In vitro antibacterial activity of Example 5 (MIC, agar dilution); type: cell-based; settings: 17 strains of Neisseria gonorrhoeae
[16] = system: Streptococcus pyogenes ATCC12384; test: S. pyogenes neutropenic mouse thigh infection model, PK/PD
[17] = S. pyogenes ATCC12384, neutropenic mouse thigh

C[C@@H]1CN2c3c(cc4c(N5C(=O)OC[C@@H]5C)noc4c3F)CC3(C(=O)NC(=O)NC3=O)[C@H]2[C@H](C)O1 [Example 5, (2R,4S,4aS)-11-Fluoro-2,4-dimethyl-8-[(4S)-4-methyl-2-oxo-1,3-oxazolidin-3-yl]-1,2,4,4a-tetrahydro-2′H,6H-spiro[1,4-oxazino[4,3-a][1,2]oxazolo[4,5-g]quinoline-5,5′-pyrimidine]-2′,4′,6′(1′H,3′H)-trione]
IC50 [1]: 0.169 µM | MIC [2]: 0.125 mg/L (≈ 0.256 µM) | AUC(0-inf) ([3]; nominal dose 10 mg/kg (measured 4.1)): 32.6 µg·h/mL | AUC(0-inf) ([3]; nominal dose 40 mg/kg (measured 25.4)): 109 µg·h/mL | AUC(0-inf) ([3]; nominal dose 60 mg/kg (measured 44.2)): 153 µg·h/mL | AUC(0-inf) ([3]; nominal dose 80 mg/kg (measured 66.2)): 251 µg·h/mL | AUC(0-inf) ([3]; nominal dose 160 mg/kg (measured 142.0)): 614 µg·h/mL | MIC [4]: 4 mg/L (≈ 8.21 µM) | MIC ([4]; Acinetobacter baumannii (in vivo strain)): 4 mg/L (≈ 8.21 µM) | MIC ([4]; Acinetobacter baumannii (multi-drug resistant)): 16 mg/L (≈ 32.8 µM) | MIC [5]: 64 mg/L (≈ 131 µM) | MIC [6]: > 64 mg/L | MIC [7]: 64 mg/L (≈ 131 µM) | MIC range ([8]; E. faecalis, n=51): 0.125 to 2 mg/L | MIC ([8]; Enterococcus faecalis): 2 mg/L (≈ 4.1 µM) | MIC ([8]; Enterococcus faecalis, ATCC29212, Enterococcus faecalis (ATCC 29212 CLSI QC Strain)): 1 mg/L (≈ 2.05 µM) | MIC ([8]; Enterococcus faecalis, Enterococcus faecalis (Vancomycin-R, fluoroquinolone-R)): 0.5 mg/L (≈ 1.03 µM) | MIC90 ([8]; Enterococcus faecalis, E. faecalis, n=51): 2 mg/L (≈ 4.1 µM) | MIC ([9]; PAO1, Pseudomonas aeruginosa (PAO1)): > 64 mg/L | MIC ([9]; PAO1, Pseudomonas aeruginosa (PAO1, mexABCDXY-)): 2 mg/L (≈ 4.1 µM) | MIC ([9]; Pseudomonas aeruginosa (clinical isolate)): > 64 mg/L | MIC [10]: 1 mg/L (≈ 2.05 µM) | MIC90 ([10]; S. lugdunensis, n=11): 0.5 mg/L (≈ 1.03 µM) | MIC [11]: 0.03 mg/L (≈ 0.0615 µM) | MIC [12]: 0.25 mg/L (≈ 0.513 µM) | MIC ([12]; Streptococcus pyogenes, read-out: MIC): 0.125 mg/L (≈ 0.256 µM) | MIC90 ([12]; Streptococcus pyogenes, 100 strains of S. pyogenes): 0.25 mg/L (≈ 0.513 µM) | MIC50 ([12]; Streptococcus pyogenes, 100 strains of S. pyogenes, read-out: MIC50 (MICH [sic])): 0.125 mg/L (≈ 0.256 µM) | MIC90 [13]: 0.5 mg/L (≈ 1.03 µM) | MIC90 [14]: 0.06 mg/L (≈ 0.123 µM) | MIC range ([14]; n=11): 0.008 to 0.06 mg/L | MIC90 [15]: 0.125 mg/L (≈ 0.256 µM) | MIC range [15]: 0.03 to 0.25 mg/L | efficacy in vivo ([16]; S. pyogenes ATC12384 in neutropenic mice): dose-dependent efficacy | AUC value for 1-log reduction [16, 17]: 76 μg·h/mL | AUC value for 2-log reduction [16, 17]: 95 μg·h/mL | AUC value for stasis [16, 17]: 60 µg·h/mL | AUC/MIC (free), EC50 ± SEM (% CV) ([16]; S. pyogenes neutropenic dose response): 151 ± 7 (5%)
